Experimental data as given in the supplement of paper PMC10307832.

Columns and labels:
Experiment in all cases: relative viability (nuclei count vs DMSO), 5 days (fraction); higher = more cells survive
[1] = compound: N#CC[C@H](C1CCCC1)n1cc(-c2ncnc3[nH]ccc23)cn1 [Ruxolitinib] + CC(=O)Nc1cccc(-n2c(=O)n(C3CC3)c(=O)c3c(Nc4ccc(I)cc4F)n(C)c(=O)c(C)c32)c1 [Trametinib] (partner 0.02 µM)
Outline: (§1)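 Each reported value is a median over duplicate plates. It expresses relative viability: treated-well nuclei count divided by vehicle-well nuclei count. Lung cancer cell lines in 1536-well plates were dosed by pin tool a day after seeding, alone with one drug or with a fixed anchor-drug dose plus five library-drug doses (not always all listed) in √10 steps, and nuclei were counted after 5 days.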

[2] = compound: CS(=O)(=O)c1ccc(-c2cnc(N)c(C(=O)Nc3ccccc3)n2)cc1 [VE-821] + CC1(C)CCC(c2ccc(Cl)cc2)=C(CN2CCN(c3ccc(C(=O)NS(=O)(=O)c4ccc(N[C@H](CCN5CCOCC5)CSc5ccccc5)c(S(=O)(=O)C(F)(F)F)c4)cc3)CC2)C1 [Navitoclax] (partner 0.5 µM)
Outline: as §1

[3] = compound: CS(=O)(=O)c1ccc(C(=O)Nc2ccc(Cl)c(-c3ccccn3)c2)c(Cl)c1 [Vismodegib] + COc1cccc2cc(-c3nc([C@H]4CC[C@H](C(=O)O)CC4)n4ncnc(N)c34)[nH]c12 [OSI-027] (partner 0.5 µM)
Outline: as §1

[4] = compound: N#CC[C@H](C1CCCC1)n1cc(-c2ncnc3[nH]ccc23)cn1 [Ruxolitinib] + C[C@]1(O)C[C@@H](c2nc(-c3ccc4ccc(-c5ccccc5)nc4c3)c3c(N)nccn32)C1 [Linsitinib] (partner 1 µM)
Outline: as §1

Cell Line | relative viability ([1]; first compound 0.08 µM) | relative viability ([1]; first compound 0.253 µM) | relative viability ([1]; first compound 0.8 µM) | relative viability ([1]; first compound 2.53 µM) | relative viability ([1]; first compound 8 µM) | relative viability ([2]; first compound 0.08 µM) | relative viability ([2]; first compound 0.253 µM) | relative viability ([2]; first compound 0.8 µM) | relative viability ([2]; first compound 2.53 µM) | relative viability ([2]; first compound 8 µM) | relative viability ([3]; first compound 0.08 µM) | relative viability ([3]; first compound 0.253 µM) | relative viability ([3]; first compound 0.8 µM) | relative viability ([3]; first compound 2.53 µM) | relative viability ([3]; first compound 8 µM) | relative viability ([4]; first compound 0.08 µM) | relative viability ([4]; first compound 0.253 µM) | relative viability ([4]; first compound 0.8 µM) | relative viability ([4]; first compound 2.53 µM) | relative viability ([4]; first compound 8 µM)
ChaGo-K-1 | 0.885 | 0.887 | 0.828 | 0.803 | 0.765 | 0.929 | 1.06 | 1.22 | 1.03 | 0.594 | 0.663 | 0.546 | 0.554 | 0.619 | 0.516 | – | – | – | – | –
HCC-44 | 1.04 | 0.971 | 0.997 | 0.753 | 1.02 | 1.01 | 0.992 | 0.975 | 1.19 | 1.08 | 0.532 | 0.482 | 0.453 | 0.526 | 0.611 | 0.664 | 0.739 | 0.66 | 0.51 | 0.395
NCI-H441 | 0.478 | 0.373 | 0.572 | 0.415 | 0.513 | 0.858 | 0.673 | 0.38 | 0.768 | 0.563 | 0.932 | 0.693 | 0.638 | 0.518 | 0.601 | 0.508 | 0.573 | 0.512 | 0.637 | 0.286
NCI-H1299 | – | – | – | – | – | 1.05 | 1.04 | 1.01 | 1 | 1.03 | – | – | – | – | – | 0.981 | 0.974 | 0.975 | 0.917 | 0.871
LU99A | 0.5 | 0.543 | 0.594 | 0.232 | 0.428 | 0.892 | 0.858 | 0.781 | 0.759 | 0.336 | 0.35 | 0.271 | 0.24 | 0.278 | 0.287 | 0.549 | 0.499 | 0.541 | 0.554 | 0.499
NCI-H520 | 0.87 | 0.663 | 0.823 | 0.609 | 0.574 | 1.16 | 1.15 | – | 1.1 | 0.671 | 0.284 | 0.227 | 0.298 | 0.314 | 0.309 | – | 1.08 | 1.16 | 0.847 | 0.679
EPLC-272H | 0.322 | 0.334 | 0.41 | 0.286 | 0.337 | 1.52 | 1.13 | 1.33 | 1.12 | 1.35 | 0.291 | 0.273 | 0.279 | 0.278 | 0.275 | 1.26 | 1.12 | 1.31 | 1.19 | 1.25
PC-14 | – | 0.829 | 1.17 | 0.45 | 0.625 | 1.09 | 0.955 | 1.06 | 0.962 | 0.923 | 0.748 | 0.686 | 0.797 | 0.738 | 0.836 | – | 0.959 | 1.04 | 0.794 | 0.69
LCLC-103H | 0.728 | 0.707 | 0.731 | 0.595 | 0.639 | – | – | – | – | – | 0.462 | 0.461 | 0.364 | 0.476 | 0.476 | 1.2 | 1.24 | 1.25 | 1.04 | 1.03
